Reference: patent US4272437A, “Antibacterial agents, and 4-thio azetidinone intermediates” (priority 1979, dated 1981)
Converted amounts (≈) assume the structure as drawn. Like-named read-outs stand apart in the source and are kept apart here.

Assays:
Ps. aeruginosa A-9843A = test: MIC, tube dilution, Pseudomonas aeruginosa A9843A; assay type: cell-based; conditions: Pseudomonas aeruginosa, A9843A, read-out: Minimum Inhibitory Concentration (M.I.C.), Pseudomonas aeruginosa A9843A; overnight 37° C.
Text: (§1) Representative compounds of the present invention were subjected to in vitro antibiotic screening against a variety of microorganisms.

S. pyogenes A9604 = test: In vivo protection of mice, lethal infection with S. pyogenes A9604; conditions: Streptococcus pyogenes, A9604, im, 2 treatments, read-out: PD50
Description: (§2) Representative compounds of the present invention were also tested in vivo in mice and their PD50 (dose of compound in mg/kg required to protect 50% of the treated mice against an otherwise lethal infection of a micro-organism) values determined with respect to the test organisms shown below.

[1] = test system: Klebsiella species A20468; test: MIC, tube dilution, Klebsiella species A20468; assay type: cell-based; conditions: Klebsiella species (K. pneumoniae) A20468; overnight 37° C.; read-out: Minimum Inhibitory Concentration (M.I.C.)
Text: as §1

E. coli A-20341-1 = test: MIC, tube dilution, Escherichia coli A20341-1; assay type: cell-based; conditions: Escherichia coli, A203411; E. coli A20341-1; overnight 37° C.; read-out: Minimum Inhibitory Concentration (M.I.C.)
Text: as §1

[2] = test system: Staph. aureus (Pen-Res) A-9606; test: MIC, tube dilution, Staphylococcus aureus A9606 (Pen-Res); assay type: cell-based; conditions: Staphylococcus aureus, Staph. aureus A9606 (Pen-Res); overnight 37° C.; read-out: Minimum Inhibitory Concentration (M.I.C.)
Text: as §1

[3] = test system: Staph. aureus A-9537 and 50% serum; test: MIC, tube dilution, Staph. aureus A9537 + 50% serum; assay type: cell-based, Staphylococcus aureus; conditions: Staphylococcus aureus, overnight 37° C., read-out: Minimum Inhibitory Concentration (M.I.C.)
Text: as §1

[4] = test system: Staph. aureus (Meth-Res) A-15097; test: MIC, tube dilution, Staphylococcus aureus A15097 (Meth-Res); assay type: cell-based; conditions: Staphylococcus aureus, Staph. aureus A15097 (Meth-Res); overnight 37° C.; read-out: Minimum Inhibitory Concentration (M.I.C.)
Text: as §1

Proteus rettgeri A21203 = test: MIC, tube dilution, Proteus rettgeri A21203; assay type: cell-based; conditions: Providencia rettgeri, A21203, Proteus rettgeri A21203; overnight 37° C.; read-out: Minimum Inhibitory Concentration (M.I.C.)
Text: as §1

Pr. morganii A-15153 = test: MIC, tube dilution, Proteus morganii A15153; assay type: cell-based; conditions: Morganella morganii, A15153, Proteus morganii A15153; overnight 37° C.; read-out: Minimum Inhibitory Concentration (M.I.C.)
Text: as §1

Ps. aeruginosa A-21213 = test: MIC, tube dilution, Pseudomonas aeruginosa A21213; assay type: cell-based; conditions: Pseudomonas aeruginosa A21213; overnight 37° C.; read-out: Minimum Inhibitory Concentration (M.I.C.)
Text: as §1

Staph. aureus A-9537 = test: MIC, tube dilution, Staphylococcus aureus A9537; assay type: cell-based; conditions: Staphylococcus aureus, A9537, Staph. aureus A9537; overnight 37° C., Nutrient Broth; read-out: Minimum Inhibitory Concentration (M.I.C.)
Text: as §1

[5] = Mouse blood levels after intramuscular administration; assay type: in vivo; conditions: average of 6 mice, read-out: Mouse blood level
Description: Mouse blood levels after intramuscular administration of representative compounds of the present invention were determined and are reported in the table below.

Str. pneumoniae A-9585 = test: MIC, tube dilution, Streptococcus pneumoniae A9585; assay type: cell-based; conditions: Streptococcus pneumoniae, A9585, Str. pneumoniae A9585; overnight 37° C., Nutrient Broth; read-out: Minimum Inhibitory Concentration (M.I.C.)
Text: as §1

Proteus vulgaris A21559 = test: MIC, tube dilution, Proteus vulgaris A21559; assay type: cell-based; conditions: Proteus vulgaris, A21559, Proteus vulgaris A21559; overnight 37° C.; read-out: Minimum Inhibitory Concentration (M.I.C.)
Text: as §1

Proteus mirabilis A9900 = test: In vivo protection of mice, lethal infection with Proteus mirabilis A9900; conditions: IM, 2 treatments, 1.3 × 10^7 organisms, read-out: PD50
Description: as §2

E. coli A15119 = test: In vivo protection of mice, lethal infection with E. coli A15119; conditions: Escherichia coli, IM, 2 treatments, 7.4 × 10^5 organisms, read-out: PD50
Description: as §2

K. pneumoniae A15130 = test: In vivo protection of mice, lethal infection with K. pneumoniae A15130; conditions: Klebsiella pneumoniae, IM, 2 treatments, 1.2 × 10^3 organisms, read-out: PD50
Description: as §2

Ent. cloacae A-9659 = test: MIC, tube dilution, Enterobacter cloacae A9659; assay type: cell-based; conditions: Enterobacter cloacae, A9659, Enterobacter cloacae A9659; overnight 37° C.; read-out: Minimum Inhibitory Concentration (M.I.C.)
Text: as §1

E. coli A-15119 = test: MIC, tube dilution, Escherichia coli A15119; assay type: cell-based; conditions: Escherichia coli, A15119, E. coli A15119; overnight 37° C.; read-out: Minimum Inhibitory Concentration (M.I.C.)
Text: as §1

S. pneumoniae A9585 = test: In vivo protection of mice, lethal infection with S. pneumoniae A9585; conditions: Streptococcus pneumoniae, A9585, im, 2 treatments, read-out: PD50
Description: as §2

Str. pyogenes A-9604 = test: MIC, tube dilution, Streptococcus pyogenes A9604; assay type: cell-based; conditions: Streptococcus pyogenes, A9604, Str. pyogenes A9604; overnight 37° C., Nutrient Broth; read-out: Minimum Inhibitory Concentration (M.I.C.)
Text: as §1

S. aureus A9537 = test: In vivo protection of mice, lethal infection with S. aureus A9537; conditions: Staphylococcus aureus, 2 treatments, read-out: PD50
Description: as §2

S. aureus A9606 = test: In vivo protection of mice, lethal infection with S. aureus A9606; conditions: Staphylococcus aureus, IM, 2 treatments, 8 × 10^8 organisms, read-out: PD50
Description: as §2

K. pneumoniae A-15130 = test: MIC, tube dilution, Klebsiella pneumoniae A15130; assay type: cell-based; conditions: Klebsiella pneumoniae, A15130, K. pneumoniae A15130; overnight 37° C.; read-out: Minimum Inhibitory Concentration (M.I.C.)
Text: as §1

Compound: NCCCCC1=C(C(=O)O)N2C(=O)CC2S1 (centres unmarked) [Example 73, 2-(4'-Aminobutyl)-penem-3-carboxylic Acid]
- MIC (Ps. aeruginosa A-9843A): > 125 mg/L
- ED50 (S. pyogenes A9604; 1.2 × 10^3 organisms): 0.89 mg/kg
- ED50 (S. pyogenes A9604; 8 × 10^3 organisms): 0.51 mg/kg
- MIC [1]: > 125 mg/L
- MIC (E. coli A-20341-1): 125 mg/L (≈ 516 µM)
- MIC [2]: 32 mg/L (≈ 132 µM)
- MIC [3]: 1 mg/L
- MIC [4]: 16 mg/L (≈ 66 µM)
- MIC (Proteus rettgeri A21203): 16 mg/L (≈ 66 µM)
- MIC (Pr. morganii A-15153): 32 mg/L (≈ 132 µM)
- MIC (Ps. aeruginosa A-21213): > 125 mg/L
- MIC (Staph. aureus A-9537): 0.25 mg/L (≈ 1.03 µM)
- concentration at 10 min ([5]; 10 minutes after IM 40 mg/kg): 37.9 µg/mL
- concentration at 20 min ([5]; 20 minutes after IM 40 mg/kg): 30.8 µg/mL
- concentration at 0.5 h ([5]; 30 minutes after IM 40 mg/kg): 21.2 µg/mL
- concentration at 0.75 h ([5]; 45 minutes after IM 40 mg/kg): 13.2 µg/mL
- concentration at 1 h ([5]; 60 minutes after IM 40 mg/kg): 8.4 µg/mL
- concentration at 1.5 h ([5]; 90 minutes after IM 40 mg/kg): 3.4 µg/mL
- concentration at 2 h ([5]; 120 minutes after IM 40 mg/kg): < 3 µg/mL
- MIC (Str. pneumoniae A-9585): 0.13 mg/L (≈ 0.537 µM)
- MIC (Proteus vulgaris A21559): 32 mg/L (≈ 132 µM)
- ED50 (Proteus mirabilis A9900): > 100 mg/kg
- ED50 (E. coli A15119): 25 mg/kg
- ED50 (K. pneumoniae A15130): > 100 mg/kg
- MIC (Ent. cloacae A-9659): 63 mg/L (≈ 260 µM)
- MIC (E. coli A-15119): 8 mg/L (≈ 33 µM)
- ED50 (S. pneumoniae A9585; 3 × 10^4 organisms): 1.2 mg/kg
- ED50 (S. pneumoniae A9585; 3.4 × 10^4 organisms): 1.56 mg/kg
- MIC (Str. pyogenes A-9604): 0.25 mg/L (≈ 1.03 µM)
- ED50 (S. aureus A9537; A9537, im, IM, 1 × 10^6 organisms): 0.2 mg/kg
- ED50 (S. aureus A9537; A9537, im, IM, 6.8 × 10^5 organisms): 0.2 mg/kg
- ED50 (S. aureus A9537; A9537, im, IM, 8 × 10^5 organisms): 0.2 mg/kg
- ED50 (S. aureus A9537; A9537, po, PO, 1 × 10^6 organisms): 0.5 mg/kg
- ED50 (S. aureus A9606): 6.3 mg/kg
- MIC (K. pneumoniae A-15130): 32 mg/L (≈ 132 µM)
